# Columns and labels:
# Assay in all cases: NCI 60 cell panel SRB screen
# Type in all cases: cell-based
# NCI-H522 = conditions: Homo sapiens; NCI-H522, single dose 10 μM; read-out: percent cell growth promotion
# HT29 = conditions: Homo sapiens, HT-29; HT29, single dose 10 μM; read-out: percent cell growth promotion
# MOLT-4 = conditions: Homo sapiens; MOLT-4, single dose 10 μM; read-out: percent cell growth promotion
# HS 578T = conditions: Homo sapiens, Hs-578T, read-out: percent cell growth promotion
# LOX IMVI = conditions: Homo sapiens, read-out: percent cell growth promotion
# MDA-MB 231/ATCC = conditions: Homo sapiens, MDA-MB-231, read-out: percent cell growth promotion
# COLO 205 = conditions: Homo sapiens; COLO 205, single dose 10 μM; read-out: percent cell growth promotion
# NCI-H322M = conditions: Homo sapiens, single dose 10 μM, read-out: percent cell growth promotion
# MDA-MB-435 = conditions: Homo sapiens, MDA-MB-435, read-out: percent cell growth promotion
# OVCAR-4 = conditions: Homo sapiens; OVCAR-4, single dose 10 μM; read-out: percent cell growth promotion
# MCF7 = conditions: Homo sapiens, MCF7, read-out: percent cell growth promotion
# UO-31 = conditions: Homo sapiens; UO-31, single dose 10 μM; read-out: percent cell growth promotion
# MDA-MB-468 = conditions: Homo sapiens, MDA-MB-468; MDA-MBA-468, single dose 10 μM; read-out: percent cell growth promotion
# Experimental: The human tumor cell lines of the cancer-screening panel were grown in RPMI 1640 medium containing 5% fetal bovine serum and […] L-glutamine. For a typical screening experiment, cells are inoculated into 96 well microtiter plates in 100 ml at plating densities ranging from 5000 to 40,000 cells/well depending on the doubling time of individual cell lines. After cell inoculation, the microtiter plates are incubated at 37 °C, 5% CO2, 95% air and 100%
# relative humidity for 24 h prior to addition of experimental drugs. After 24 h, two plates of each cell line are fixed in situ with TCA, to represent a measurement of the cell population for each cell line at the time of drug addition (Tz). Experimental drugs are dissolved in dimethyl sulfoxide at 400-fold the desired final maximum test concentration and stored frozen prior to use. At the time of drug addition, an aliquot of frozen concentrate is thawed and diluted to twice the desired final maximum test concentration with complete medium containing […] Gentamicin. Additional four, 10-fold or ½log serial dilutions are made to provide a total of five drug concentrations plus control. Aliquots of […] of these different drug dilutions are added to the appropriate microtiter wells already containing 100 ml of medium, resulting in the required final drug concentrations. Following drug addition, the plates are incubated for an additional 48 h at 37 °C, 5% CO2, 95% air, and 100% relative humidity. For adherent cells, the assay is terminated by the addition of cold TCA. Cells are fixed in situ by the gentle addition of […] of cold 50% (w/v) TCA (final concentration,10% TCA) and incubated for 60 min at 4 °C. The supernatant is discarded, and the plates are washed five times with tap water and air dried. Sulforhodamine B (SRB) solution (100 ml) at 0.4% (w/v) in 1% acetic acid is added to each well, and plates are incubated for 10 min at room temperature. After staining, unbound dye is removed by washing five times with 1% acetic acid and the plates are air dried. Bound stain is subsequently dissolved with 10 μM trizma base, and the absorbance is read on an automated plate reader at a wavelength of 515 nm. For suspension cells, the methodology is the same except that the assay is terminated by fixing settled cells at the bottom of the wells by gently adding […] of 80% TCA (final concentration, 16% TCA).
# Using the seven absorbance measurements [time zero, (Tz), control growth, (C), and test growth in the presence of drug at the five concentration levels (Ti)], the percentage growth is calculated at each of the drug concentrations levels. Percentage growth inhibition is calculated as: [(Ti -Tz)/(C - Tz)] x 100 for concentrations for which Ti>/ ¼ Tz and [(Ti -Tz) / Tz] x100 for concentrations for which Ti <Tz.
# Three dose response parameters are calculated for each experimental agent. Growth inhibition of 50% (GI50) is calculated from [(Ti -Tz)/(C - Tz)] x 100 =50, which is the drug concentration resulting in a 50% reduction in the net protein increase (as measured by SRB staining) in control cells during the drug incubation. The drug concentration resulting in total growth inhibition (TGI) is calculated from Ti ¼ Tz. The LC50 (concentration of drug resulting in a 50% reduction in the measured protein at the end of the drug treatment as compared to that at the beginning) indicating a net loss of cells following treatment is calculated from [(Ti - Tz) / Tz] x100 = -50. Values are calculated for each of these three parameters if the level of activity is reached; however, if the effect is not reached or is exceeded, the value for that parameter is expressed as greater or less than the maximum or minimum concentration tested.
# HCT-15 = conditions: Homo sapiens; HCT-15, single dose 10 μM; read-out: percent cell growth promotion
# HOP-92 = conditions: Homo sapiens; HOP-92, single dose 10 μM; read-out: percent cell growth promotion
# BT-549 = conditions: Homo sapiens, BT-549, read-out: percent cell growth promotion
# KM12 = conditions: Homo sapiens; KM12, single dose 10 μM; read-out: percent cell growth promotion
# HCC-2998 = conditions: Homo sapiens; HCC-2998, single dose 10 μM; read-out: percent cell growth promotion
Structure (SMILES),activity at 10 µM (NCI-H522) [%],activity at 10 µM (HT29) [%],activity at 10 µM (MOLT-4) [%],activity at 10 µM (HS 578T) [%],activity at 10 µM (LOX IMVI) [%],activity at 10 µM (MDA-MB 231/ATCC) [%],activity at 10 µM (COLO 205) [%],activity at 10 µM (NCI-H322M) [%],activity at 10 µM (MDA-MB-435) [%],activity at 10 µM (OVCAR-4) [%],activity at 10 µM (MCF7) [%],activity at 10 µM (UO-31) [%],activity at 10 µM (MDA-MB-468) [%],activity at 10 µM (HCT-15) [%],activity at 10 µM (HOP-92) [%],activity at 10 µM (BT-549) [%],activity at 10 µM (KM12) [%],activity at 10 µM (HCC-2998) [%]
"O=C(Nc1ccc(Nc2nncc3ccccc23)cc1)c1ccc(Cl)cc1 [Compound 5b, 4-Chloro-N-(4-(phthalazin-1-ylamino)phenyl)benzamide]",96.8,104,97.3,105,99.9,93.3,104,109,103,106,93,78.6,101,109,97.5,107,103,113
"Cc1nnc(Nc2ccc(NC(=O)c3ccc(Cl)cc3)cc2)c2ccccc12 [Compound 5d, 4-Chloro-N-(4–(4-methylphthalazin-1-ylamino)phenyl)benzamide]",94.7,94.3,83.5,89.7,91.9,73,90.3,112,102,105,84.5,57.8,104,101,55.4,92.2,101,125
"Cc1nnc(N2CCN(c3ccccc3F)CC2)c2ccccc12 [Compound 8h, 1–(4-(2-Fluorophenyl)piperazin-1-yl)-4-methylphthalazine]",89,90,102,110,106,121,120,121,93.5,91.8,86.5,95.9,84.8,91.8,112,,113,101
"Cc1nnc(N2CCN(c3ccccn3)CC2)c2ccccc12 [Compound 8i, 1-Methyl-4–(4-(pyridin-2-yl)piperazin-1-yl)phthalazine]",94.5,91.2,96.1,109,102,117,113,107,99.6,100,89.1,102,87.4,90.3,119,,110,102
"O=C(Nc1ccc(Cl)cc1)Nc1ccc(Oc2nnc(Cl)c3ccccc23)cc1 [Compound 13b, 1–(4-Chlorophenyl)-3–(4-(4-chlorophthalazin-1-yloxy)phenyl)urea]",52.5,95.8,,97.9,86.2,67.5,106,99.1,93.9,72.1,86.2,53.9,84.9,94.1,104,96.8,84.5,115

# Source: article PMC6691788, “Design and synthesis of phthalazine-based compounds as potent anticancer agents with potential antiangiogenic activity via VEGFR-2 inhibition” (Journal of Enzyme Inhibition and Medicinal Chemistry, 2019)
